Results reported in PubChem BioAssay (NCI).
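GI50: concentration for 50% inhibition of growth. Definition used: TGI = concentration required for complete inhibition of growth.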

Experiments:
Experiment in all cases: NCI tumour cell line growth inhibition, 384-well format
SF-295 CNS = system: SF-295 CNS
SK-MEL-28 melanoma = system: SK-MEL-28 melanoma
HCT-116 colon = system: HCT-116 colon
HL-60(TB) leukemia = system: HL-60(TB) leukemia
MDA-MB-435 melanoma = system: MDA-MB-435 melanoma
OVCAR-8 ovarian = system: OVCAR-8 ovarian
UACC-62 melanoma = system: UACC-62 melanoma
HT29 colon = system: HT29 colon
LOX IMVI melanoma = system: LOX IMVI melanoma
T-47D breast = system: T-47D breast
NCI-H460 NSCLC = system: NCI-H460 NSCLC
CAKI-1 renal = system: CAKI-1 renal
HCT-15 colon = system: HCT-15 colon
ACHN renal = system: ACHN renal
NCI-H522 lung = system: NCI-H522 lung
HS 578T breast = system: HS 578T breast
OVCAR-5 ovarian = system: OVCAR-5 ovarian
SNB-19 CNS = system: SNB-19 CNS
A498 renal = system: A498 renal
DU-145 prostate = system: DU-145 prostate
A549 NSCLC = system: A549 NSCLC
SR leukemia = system: SR leukemia
PC-3 prostate = system: PC-3 prostate
BT-549 breast = system: BT-549 breast
SN12C renal = system: SN12C renal
SF-268 CNS = system: SF-268 CNS
OVCAR-3 ovarian = system: OVCAR-3 ovarian
HOP-92 NSCLC = system: HOP-92 NSCLC
MOLT-4 leukemia = system: MOLT-4 leukemia
NCI/ADR-RES ovarian = system: NCI/ADR-RES ovarian
U251 glioblastoma = system: U251 glioblastoma
NCI-H23 lung = system: NCI-H23 lung
MDA-MB-231 breast = system: MDA-MB-231 breast
HOP-62 NSCLC = system: HOP-62 NSCLC
MALME-3M melanoma = system: MALME-3M melanoma
RXF 393 renal = system: RXF 393 renal
MCF7 breast = system: MCF7 breast
SK-OV-3 ovarian = system: SK-OV-3 ovarian
IGROV1 ovarian = system: IGROV1 ovarian
EKVX NSCLC = system: EKVX NSCLC
KM12 colon = system: KM12 colon
HCC-2998 colon = system: HCC-2998 colon
TK-10 renal = system: TK-10 renal
SK-MEL-5 melanoma = system: SK-MEL-5 melanoma
MDA-MB-468 breast = system: MDA-MB-468 breast
NCI-H226 lung = system: NCI-H226 lung
SNB-75 CNS = system: SNB-75 CNS
COLO 205 colon = system: COLO 205 colon
OVCAR-4 ovarian = system: OVCAR-4 ovarian
RPMI-8226 leukemia = system: RPMI-8226 leukemia
UACC-257 melanoma = system: UACC-257 melanoma
NCI-H322M lung = system: NCI-H322M lung
SF-539 CNS = system: SF-539 CNS
M14 melanoma = system: M14 melanoma

N#CCNC(=O)c1ccc(-c2ccnc(Nc3ccc(N4CCOCC4)cc3)n2)cc1
GI50 (SF-295 CNS): 4.06 µM | TGI (SF-295 CNS): 17 µM | GI50 (SK-MEL-28 melanoma): 6.23 µM | TGI (SK-MEL-28 melanoma): 50.8 µM | GI50 (HCT-116 colon): 1.51 µM | TGI (HCT-116 colon): 3.91 µM | GI50 (HL-60(TB) leukemia): 1.55 µM | TGI (HL-60(TB) leukemia): 2.89 µM | GI50 (MDA-MB-435 melanoma): 4.02 µM | TGI (MDA-MB-435 melanoma): 21.5 µM | GI50 (OVCAR-8 ovarian): 3.68 µM | TGI (OVCAR-8 ovarian): 17.6 µM | GI50 (UACC-62 melanoma): 3.57 µM | TGI (UACC-62 melanoma): 15.3 µM | GI50 (HT29 colon): 4.15 µM | TGI (HT29 colon): 24.6 µM | GI50 (LOX IMVI melanoma): 1.7 µM | TGI (LOX IMVI melanoma): 4.06 µM | GI50 (T-47D breast): 11 µM | TGI (T-47D breast): 39.9 µM | GI50 (NCI-H460 NSCLC): 1.06 µM | TGI (NCI-H460 NSCLC): 2.5 µM | GI50 (CAKI-1 renal): 1.23 µM | TGI (CAKI-1 renal): 3.19 µM | GI50 (HCT-15 colon): 3.02 µM | TGI (HCT-15 colon): 10.7 µM | GI50 (ACHN renal): 1.27 µM | TGI (ACHN renal): 4.14 µM | GI50 (NCI-H522 lung): 1.64 µM | TGI (NCI-H522 lung): 6.45 µM | GI50 (HS 578T breast): 1.32 µM | TGI (HS 578T breast): 3.33 µM | GI50 (OVCAR-5 ovarian): 2.63 µM | TGI (OVCAR-5 ovarian): 5.71 µM | GI50 (SNB-19 CNS): 7.84 µM | TGI (SNB-19 CNS): 28.3 µM | GI50 (A498 renal): 1.14 µM | TGI (A498 renal): 2.53 µM | GI50 (DU-145 prostate): 1.55 µM | TGI (DU-145 prostate): 3.99 µM | GI50 (A549 NSCLC): 3.19 µM | TGI (A549 NSCLC): 13.7 µM | GI50 (SR leukemia): 0.468 µM | TGI (SR leukemia): 1.29 µM | GI50 (PC-3 prostate): 2.9 µM | TGI (PC-3 prostate): 11.8 µM | GI50 (BT-549 breast): 1.15 µM | TGI (BT-549 breast): 2.46 µM | GI50 (SN12C renal): 0.787 µM | TGI (SN12C renal): 3.94 µM | GI50 (SF-268 CNS): 2.12 µM | TGI (SF-268 CNS): 6.6 µM | GI50 (OVCAR-3 ovarian): 4.64 µM | TGI (OVCAR-3 ovarian): 19 µM | GI50 (HOP-92 NSCLC): 6.94 µM | TGI (HOP-92 NSCLC): 29 µM | GI50 (MOLT-4 leukemia): 2.07 µM | TGI (MOLT-4 leukemia): 3.99 µM | GI50 (NCI/ADR-RES ovarian): 21.4 µM | TGI (NCI/ADR-RES ovarian): > 100 µM | GI50 (U251 glioblastoma): 2.28 µM | TGI (U251 glioblastoma): 5.9 µM | GI50 (NCI-H23 lung): 2.33 µM | TGI (NCI-H23 lung): 13.6 µM | GI50 (MDA-MB-231 breast): 1.89 µM | TGI (MDA-MB-231 breast): 16.8 µM | GI50 (HOP-62 NSCLC): 1.81 µM | TGI (HOP-62 NSCLC): 4.09 µM | GI50 (MALME-3M melanoma): 3.05 µM | TGI (MALME-3M melanoma): 23.5 µM | GI50 (RXF 393 renal): 1.61 µM | TGI (RXF 393 renal): 3.26 µM | GI50 (MCF7 breast): 2.24 µM | TGI (MCF7 breast): 8.44 µM | GI50 (SK-OV-3 ovarian): 2.73 µM | TGI (SK-OV-3 ovarian): 20.7 µM | GI50 (IGROV1 ovarian): 1.42 µM | TGI (IGROV1 ovarian): 3.91 µM | GI50 (EKVX NSCLC): 2.93 µM | TGI (EKVX NSCLC): 16.8 µM | GI50 (KM12 colon): 3.51 µM | TGI (KM12 colon): 74.1 µM | GI50 (HCC-2998 colon): 1.93 µM | TGI (HCC-2998 colon): 4.18 µM | GI50 (TK-10 renal): 1.25 µM | TGI (TK-10 renal): 3.27 µM | GI50 (SK-MEL-5 melanoma): 2.16 µM | TGI (SK-MEL-5 melanoma): 9.34 µM | GI50 (MDA-MB-468 breast): 1.37 µM | TGI (MDA-MB-468 breast): 3.2 µM | GI50 (NCI-H226 lung): 1.43 µM | TGI (NCI-H226 lung): 3.66 µM | GI50 (SNB-75 CNS): 2.52 µM | TGI (SNB-75 CNS): 15.5 µM | GI50 (COLO 205 colon): 4.24 µM | TGI (COLO 205 colon): 14.8 µM | GI50 (OVCAR-4 ovarian): 3.59 µM | TGI (OVCAR-4 ovarian): 11.1 µM | GI50 (RPMI-8226 leukemia): 1.23 µM | TGI (RPMI-8226 leukemia): 2.87 µM | GI50 (UACC-257 melanoma): 3.19 µM | TGI (UACC-257 melanoma): 8.82 µM | GI50 (NCI-H322M lung): 2.72 µM | TGI (NCI-H322M lung): 10.8 µM | GI50 (SF-539 CNS): 2.12 µM | TGI (SF-539 CNS): 10 µM | GI50 (M14 melanoma): 6.27 µM | TGI (M14 melanoma): 51.2 µM
